Experimental data from patent US9695155B2, “Herbicidal substituted pyrimidinyloxy benzene compounds” (E. I. DU PONT DE NEMOURS AND COMPANY, priority 2013, dated 2017).

Legend:
ragweed = assay: Test C postemergence; assay type: in vivo, Ambrosia elatior; details: for Plant response rating (0 to 100), Ragweed: 16 g ai/ha, 0 is no effect, 100 is complete control; for Ragweed plant response rating: 31 g ai/ha, 13 to 15 days; for Ragweed plant response rating / Plant response rating, Ragweed: scale 0 to 100 (0 no effect, 100 complete control)
In short: (§1)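 Visual injury score versus untreated controls, 0 = no effect, 100 = complete control, taken 13 to 15 days after treatment in the greenhouse. Pre-emergence pots held loam/sand; post-emergence plants grew in sphagnum peat/vermiculite mix and were sprayed at the 1- to 4-leaf stage.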

large (Lg) crabgrass = assay: Test C preemergence; assay type: in vivo, Digitaria sanguinalis; details: for Crabgrass, Large plant response rating: preemergence; for Plant response rating, Crabgrass, Large: Preemergence, 31 g ai/ha, scale 0 to 100, 0 no effect, 100 complete control
In short: as §1

rice = assay: Test B flooded paddy test; assay type: in vivo, Oryza sativa; details: Flood, 250 g ai/ha; 0 to 100 scale where 0 is no effect and 100 is complete control
In short: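 2-leaf stage plants; pots flooded to 3 cm, compound added to paddy water, depth maintained. Greenhouse 13–15 d. Visual rating vs untreated controls, 0 (no effect) to 100 (complete control); dash = no result.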

wheat, winter = assay: Test C postemergence; assay type: in vivo, Triticum aestivum; details: for Plant response rating (0 to 100), Wheat: 16 g ai/ha, 0 is no effect, 100 is complete control; for Wheat plant response rating: 31 g ai/ha, 13 to 15 days; for Wheat plant response rating / Plant response rating, Wheat: scale 0 to 100 (0 no effect, 100 complete control)
In short: as §1

wild oat = assay: Test C postemergence; assay type: in vivo, Avena fatua; details: for Plant response rating (0 to 100), Oat, Wild: 16 g ai/ha, 0 is no effect, 100 is complete control; for Oat, Wild plant response rating: 31 g ai/ha, 13 to 15 days; for Oat, Wild plant response rating / Plant response rating, Oat, Wild: scale 0 to 100 (0 no effect, 100 complete control)
In short: as §1

lambsquarters = assay: Test C preemergence; assay type: in vivo, Chenopodium album; details: preemergence
In short: as §1

johnsongrass = assay: Test C preemergence; assay type: in vivo, Sorghum halepense; details: preemergence
In short: as §1

kochia = assay: Test C postemergence; assay type: in vivo, Kochia scoparia; details: for Plant response rating (0 to 100), Kochia: 16 g ai/ha, 0 is no effect, 100 is complete control; for Kochia plant response rating: 31 g ai/ha, 13 to 15 days; for Kochia plant response rating / Plant response rating, Kochia: scale 0 to 100 (0 no effect, 100 complete control)
In short: as §1

[1] = 125 g ai/ha, postemergence, visual rating
[2] = 16 g ai/ha, scale 0 to 100 (0 no effect, 100 complete control)
[3] = 62 g ai/ha, scale 0 (no effect) to 100 (complete control)
[4] = 125 g ai/ha, scale 0 (no effect) to 100 (complete control)

Compound	Plant response rating (0 to 100), Ragweed (ragweed; postemergence)	Ragweed plant response rating (ragweed; postemergence, visual rating)	Plant response rating, Ragweed (ragweed; [1])	Plant response rating, Ragweed (ragweed; Postemergence, 62 g ai/ha)	Crabgrass, Large plant response rating (large (Lg) crabgrass; [2])	Crabgrass, Large plant response rating (large (Lg) crabgrass; [3])	Crabgrass, Large plant response rating (large (Lg) crabgrass; [4])	Plant response rating, Crabgrass, Large (large (Lg) crabgrass)	Plant response rating, Rice (rice)	Plant response rating (0 to 100), Wheat (wheat, winter; postemergence)	Wheat plant response rating (wheat, winter; postemergence, visual rating)	Plant response rating, Wheat (wheat, winter; [1])	Plant response rating, Wheat (wheat, winter; Postemergence, 62 g ai/ha)	Plant response rating (0 to 100), Oat, Wild (wild oat; postemergence)	Oat, Wild plant response rating (wild oat; postemergence, visual rating)	Plant response rating, Oat, Wild (wild oat; [1])	Plant response rating, Oat, Wild (wild oat; Postemergence, 62 g ai/ha)	Lambsquarters plant response rating (lambsquarters; [2])	Lambsquarters plant response rating (lambsquarters; [3])	Lambsquarters plant response rating (lambsquarters; [4])	other results
CCCOc1cnn(-c2c(C#N)cccc2Oc2ncc(Cl)cn2)c1 [Compound 150]	30	30	65	35	70	100	100	98	0	5	5	25	5	5	5	5	5	10	80	100	Johnsongrass plant response rating (johnsongrass; [2]): 0; Johnsongrass plant response rating (johnsongrass; [3]): 70; Johnsongrass plant response rating (johnsongrass; [4]): 80; Plant response rating (0 to 100), Kochia (kochia; postemergence): 50; Kochia plant response rating (kochia; postemergence, visual rating): 55; Plant response rating, Kochia (kochia; [1]): 85; Plant response rating, Kochia (kochia; Postemergence, 62 g ai/ha): 55
FCc1cn(-c2c(F)cccc2Oc2ncc(Cl)cn2)nn1 [Compound 154]	35	45	90	100	75	100	100	90	10	0	0	5	0	0	0	0	0	70	90	100	Johnsongrass plant response rating (johnsongrass; [2]): 0; Johnsongrass plant response rating (johnsongrass; [3]): 40; Johnsongrass plant response rating (johnsongrass; [4]): 85; Plant response rating (0 to 100), Kochia (kochia; postemergence): 50; Kochia plant response rating (kochia; postemergence, visual rating): 50; Plant response rating, Kochia (kochia; [1]): 80; Plant response rating, Kochia (kochia; Postemergence, 62 g ai/ha): 80
